Patent publication US20250367160A1, “USE OF GUAIJAVERIN IN PREPARATION OF EYE PROTECTION PRODUCT” (Innovation Center of Yangtze River Delta, ZJU, priority 2024, published 2025)

Test system: ocular apoptotic cells of the zebrafish
Test: Anti-blue light eye protection efficacy, AO staining of ocular apoptotic cells in zebrafish blue light eye damage model
Assay type: in vivo
Details: 62.5 μg/mL, aqueous, 28° C., 1 d, n = 10; model group 45833 ± 4825, normal control 12203 ± 1124
Experimental: Wild-type AB zebrafish at 1 dpf were randomly selected and irradiated with blue light after membrane rupture to establish the zebrafish blue light eye damage model. Model zebrafish with desirable development status were selected at 3 dpf and randomly distributed in 6-well plates, with 30 zebrafish in each well (experimental group) were treated. Different concentrations of guaijaverin (see Table 2 for concentrations) were administered aqueously, and lutein at a concentration of 62.5 μg/mL were used as a positive control, while a normal control group and a model group were also set up, with a volume of 3 mL per well. After 1 d of treatment at 28° C., the zebrafish in each experimental group were stained with AO in the dark for 30 min and washed 3 times with standard dilution water. 10 zebrafish were randomly selected from each experimental group and photographed under a fluorescence microscope. The data were analyzed and collected using Image J software. The fluorescence intensity of ocular apoptotic cells of the zebrafish was statistically analyzed. The anti-blue light eye protection efficacy of guaijaverin was evaluated based on the statistical analysis results of the above indicators. The statistical result was expressed as mean±SE.

CC1=C[C@H](O)CC(C)(C)[C@H]1/C=C/C(C)=C/C=C/C(C)=C/C=C/C=C(C)/C=C/C=C(C)/C=C/C1=C(C)C[C@@H](O)CC1(C)C [Lutein, lutein, reference compound]
Fluorescence intensity of ocular apoptotic cells (pixel, mean ± SE): 21751 ± 2993 pixel
